Reference: US5449612A, “Process for identifying candida by means of chromogenic substances” (Serbio, priority 1990, dated 1995)
Non-standard residues stand in square brackets, D forms with d. Residues, ends and D or L forms follow the SMILES beside them. *: point of attachment. pNA = O=[N+]([O-])c1ccc(N*)cc1; Cbz = O=C(OCc1ccccc1)*

Key:
Candida tropicalis = experiment: Tests on substrates against Candida tropicalis, colour reading on buffered gelose; assay type: cell-based; details: Table II; medium pH 6.0, YNB, glucose, agar, gentamycin
Candida albicans = experiment: Tests on substrates against Candida albicans, colour reading on buffered gelose; assay type: cell-based; details: Table I; for Reading at 24 h: medium pH 6.0, YNB, glucose, agar, gentamycin, coloration or fluorescence

CC(C)C[C@H](N)C(=O)NCC(=O)N[C@@H](CCCNC(=N)N)C(=O)Nc1ccc([N+](=O)[O-])cc1 [H-L-Leu-Gly-L-Arg-pNA.2AcOH] (H-Leu-Gly-Arg-pNA) was tested, and the “Reading at 24 h” value (Candida tropicalis) was “++++”.

In the case of CC(=O)O.O=C(Nc1ccc([N+](=O)[O-])cc1)[C@H]1NCCC1O (stereo partly drawn) [H-L-3Hyp-pNA.AcOH], the “Specificity: nonspecific for the strains of Candida albicans” value (shortened to “Specificity: nonspecific for the strains”) (Candida albicans) is reported as “(a)” and the “Reading at 24 h” value (Candida albicans) is reported as “+++”.

For O=C(NCC(=O)N1CCC[C@H]1C(=O)Nc1ccc([N+](=O)[O-])cc1)OCc1ccccc1 [Z-Gly-L-Pro-pNA] (Cbz-Gly-Pro-pNA), the “Reading at 24 h” value (Candida albicans) was “-”.

With CC(=O)O.N=C(N)NCCC[C@H](NC(=O)OCc1ccccc1)C(=O)Nc1ccc([N+](=O)[O-])cc1 [Cbo-L-Arg-pNA.AcOH] the “Reading at 24 h” value (Candida albicans) was “-”.

In the case of CC(=O)O.O=C(Nc1ccc2ccccc2c1)[C@@H]1C[C@@H](O)CN1 [H-L-Hyp-NA.AcOH, reference compound], the “Specificity: nonspecific for the strains” value (Candida albicans) is reported as “(a)” and the “Reading at 24 h” value (Candida albicans) is reported as “++”.

In the case of Z-L-Ala-L-Pro-pNA, the “Reading at 24 h” value (Candida albicans) is reported as “-”.

For CC(=O)O.CC(=O)O.N=C(N)NCCC[C@H](N)C(=O)Nc1ccc([N+](=O)[O-])cc1 [H-L-Arg-pNA.2AcOH], the “Specificity: nonspecific for the strains” value (Candida albicans) was “(a)” and the “Reading at 24 h” value (Candida albicans) was “+++”.

In the case of H-L-Hyp-L-Pro-L-Arg-pNA.2AcOH, the “Reading at 24 h” value (Candida tropicalis) is reported as “+++”.

O=C(Nc1ccc([N+](=O)[O-])cc1)[C@@H]1CCCN1C(=O)OCc1ccccc1 [Cbo-L-Pro-pNA] was tested, and the “Reading at 24 h” value (Candida albicans) was “-”.

With CC(=O)O.O=C(Nc1ccc2cc(Br)ccc2c1)[C@@H]1CCCN1 [H-L-Pro-(6-Br)NA.AcOH, reference compound] the “Specificity: nonspecific for the strains” value (Candida albicans) was “(a)” and the “Reading at 24 h” value (Candida albicans) was “+”.

For H-L-Hyp-L-Arg-pNA.2AcOH, the “Reading at 24 h” value (Candida tropicalis) was “++”.

In the case of N=C(N)NCCC[C@H](NC(=O)[C@H]1CCCN1C(=O)[C@H]1CCCN1)C(=O)Nc1ccc([N+](=O)[O-])cc1 [H-D-Pro-D-Pro-L-Arg-pNA.2AcOH] (H-[dP]-[dP]-Arg-pNA), the “Reading at 24 h” value (Candida tropicalis) is reported as “-”.

For CC(=O)O.O=C(Nc1ccc2ccccc2c1)[C@@H]1CCCN1 [H-L-Pro-NA.AcOH, reference compound], the “Specificity: nonspecific for the strains” value (Candida albicans) was “(a)” and the “Reading at 24 h” value (Candida albicans) was “++”.

C[C@H](N)C(=O)N[C@@H](C)C(=O)N1CCC[C@H]1C(=O)Nc1ccc([N+](=O)[O-])cc1 [H-L-Ala-L-Ala-L-Pro-pNA.AcOH] (H-Ala-Ala-Pro-pNA) was tested, and the “Specificity: nonspecific for the strains” value (Candida albicans) was “(a)” and the “Reading at 48 h” value (Candida albicans; same medium, reading at 48 h) was “+”.

In the case of CC(=O)O.COc1cc(NC(=O)[C@@H]2CCCN2)cc2ccccc12 [H-L-Pro-(4-MeO)NA.AcOH, reference compound], the “Reading at 24 h” value (Candida albicans) is reported as “-”.

In the case of CC(=O)O.O=C(Nc1ccc([N+](=O)[O-])cc1)[C@@H]1CC(O)CN1 (stereo partly drawn) [H-L-4Hyp-pNA.AcOH], the “Specificity: nonspecific for the strains” value (Candida albicans) is reported as “(a)” and the “Reading at 24 h” value (Candida albicans) is reported as “+++”.

For CC(=O)O.NCCCC[C@H](NC(=O)OCc1ccccc1)C(=O)Nc1ccc([N+](=O)[O-])cc1 [Z-L-Lys-pNA.AcOH], the “Reading at 24 h” value (Candida albicans) was “-”.

With H-L-Hyp-L-Lys-pNA.2AcOH the “Reading at 24 h” value (Candida tropicalis) was “++”.

In the case of H-L-ONC-L-Pro-L-Arg-pNA.AcOH, the “Reading at 24 h” value (Candida tropicalis) is reported as “+++”.

In the case of C[C@H](N)C(=O)N1CCC[C@H]1C(=O)Nc1ccc([N+](=O)[O-])cc1 [H-L-Ala-L-Pro-pNA.AcOH] (H-Ala-Pro-pNA), the “Specificity: nonspecific for the strains” value (Candida albicans) is reported as “(a)” and the “Reading at 24 h” value (Candida albicans) is reported as “++”.

N=C(N)NCCC[C@H](NC(=O)[C@@H]1CCCN1)C(=O)Nc1ccc([N+](=O)[O-])cc1 [H-L-Pro-L-Arg-pNA.2AcOH] (H-Pro-Arg-pNA) was tested, and the “Reading at 24 h” value (Candida tropicalis) was “++”.

With H-D-Pro-L-Hyp-L-Arg-pNA.2AcOH the “Reading at 24 h” value (Candida tropicalis) was “+++”.

CC(=O)O.COCCOCCOC(=O)NC(CCCN=C(N)N)C(=O)Nc1ccc([N+](=O)[O-])cc1 [MeO(CH2 CH2 O)2 CO-L-Arg-pNA.AcOH] was tested, and the “Reading at 24 h” value (Candida albicans) was “-”.

With H-L-Hyp-L-Hyp-L-Arg-pNA.2AcOH the “Reading at 24 h” value (Candida tropicalis) was “+++”.

In the case of N=C(N)NCCC[C@H](NC(=O)[C@@H]1CCCN1C(=O)[C@H]1CCCN1)C(=O)Nc1ccc([N+](=O)[O-])cc1 [H-D-Pro-L-Pro-L-Arg-pNA.2AcOH] (H-[dP]-Pro-Arg-pNA), the “Reading at 24 h” value (Candida tropicalis) is reported as “++++”.
